# “Also recorded” adds a separate entry of the source. Bridges are numbered along the chain shown (N, C = ends). Where no end group is shown, it is not given here.
# Key:
# hKv3.1 = test: TEVC, Kv3.1 in Xenopus oocytes; type: cell-based, human; conditions: 1 µM, ND96 pH 7.4, 18–22 °C, n ≥ 3
# Excerpt: (§1) For the expression of Kv channels (rKv1.1, rKv1.2, rKv1.3, rKv1.4, rK1.5, rKv1.6, hKv2.1, hKv3.1, rKv4.2, hKv7.1, hKv7.2/7.3, hKv7.4, KQT1 (from the roundworm Caenorhabditis elegans), hKv10.1 (hEAG1), hKv11.1 (hERG1), and Shaker, from Drosophila melanogaster), Nav channels (rNav1.1, rNav1.2, rNav1.3, rNav1.4, hNav1.5, mNav1.6, hNav1.7, hNav1.8, and BgNav (from the cockroach Blattella germanica), as well as the hβ1 and rβ1 subunits, and Cav channels (rCav3.1, hCav3.2, and rCav3.3) in Xenopus oocytes, the linearized plasmids were transcribed using the T7 or SP6 mMESSAGEmMACHINE transcription kit (Ambion, Austin, TX, USA). Mature female animals were purchased from Nasco (Fort Atkinson, WI, USA) and were housed in the Aquatic Facility (KU Leuven) in compliance with the regulations of the European Union (EU) concerning the welfare of laboratory animals as declared in Directive 2010/63/EU. The use of X. laevis oocytes was approved by the Animal Ethics Committee of the KU Leuven, with the license number P186/2019. […]
# (§2) Whole-cell currents of oocytes were recorded 1 to 3 days after RNA injection. […] The current–voltage relationships were determined by 50 ms step depolarizations between −90 and +65 mV using 5 or 10 mV increments. All electrophysiological data were analyzed following the procedures described by Peigneur et al., 2012 [20].
# (§3) All values were expressed as means ± SEM. […]
# ASIC = tested on: ASIC; parameters: method as in 2 sources, one per row (each row's own in cited_ref): ref 17 = [17]; PMID 29684594; doi:10.1016/j.peptides.2018.04.013; 17. Kalina R. Gladkikh I. Dmitrenok P. Chernikov O. Koshelev S. Kvetkina A. Kozlov S. Kozlovskaya E. Monastyrnaya M. New APETx-like peptides from sea anemone Heteractis crispa modulate ASIC1a channels ||| ref 22 = [22]; PMID 15044953; doi:10.1038/sj.emboj.7600177; 22. Diochot S. Baron A. Rash L.D. Deval E. Escoubas P. Scarzello S. Salinas M. Lazdunski M. A new sea anemone peptide, APETx2, inhibits ASIC3, a major acid-sensitive channel in sensory neurons EMBO J.; conditions: cited from earlier work
# mNav1.6 = test: TEVC, Nav1.6 in Xenopus oocytes; type: cell-based, mouse
# Excerpt: (§4) For the expression of Kv channels (rKv1.1, rKv1.2, rKv1.3, rKv1.4, rK1.5, rKv1.6, hKv2.1, hKv3.1, rKv4.2, hKv7.1, hKv7.2/7.3, hKv7.4, KQT1 (from the roundworm Caenorhabditis elegans), hKv10.1 (hEAG1), hKv11.1 (hERG1), and Shaker, from Drosophila melanogaster), Nav channels (rNav1.1, rNav1.2, rNav1.3, rNav1.4, hNav1.5, mNav1.6, hNav1.7, hNav1.8, and BgNav (from the cockroach Blattella germanica), as well as the hβ1 and rβ1 subunits, and Cav channels (rCav3.1, hCav3.2, and rCav3.3) in Xenopus oocytes, the linearized plasmids were transcribed using the T7 or SP6 mMESSAGEmMACHINE transcription kit (Ambion, Austin, TX, USA). Mature female animals were purchased from Nasco (Fort Atkinson, WI, USA) and were housed in the Aquatic Facility (KU Leuven) in compliance with the regulations of the European Union (EU) concerning the welfare of laboratory animals as declared in Directive 2010/63/EU. The use of X. laevis oocytes was approved by the Animal Ethics Committee of the KU Leuven, with the license number P186/2019.
# (§5) Stage V–VI oocytes were collected from anesthetized female X. laevis frog as previously described, with the frogs anesthetized by placement in a 0.1% tricaine solution (amino benzoic acid ethyl ester; Merck, Kenilworth, NJ, USA). Oocyte microinjection was performed using a microinjector (Drummond Scientifc®, Broomall, PA, USA), with a programmed cRNA injection volume of 4–50 nL, depending on channel subtype. The oocytes were incubated in ND96 solution (96 mM NaCl; 2 mM KCl; 1.8 mM CaCl2; 2 mM MgCl2, and 5 mM HEPES, pH 7.4), supplemented with 50 mg/L of gentamicin sulfate.
# (§6) Electrophysiological measurements were performed at room temperature (18–22 °C) using the two-electrode voltage-clamp (TEVC) technique. Data were obtained using a GeneClamp 500 amplifier (Axon Instruments®, Burlingame, CA, USA) and Clampex9 software (Axon Instruments®, USA) was responsible for data acquisition and storage. Glass micropipettes were produced using glass capillaries (borosilicate WPI 1B120-6) and drawn in a WPI (World Precision Instruments®, Sarasota, FL, USA) manual stretcher. The bath and perfusion solutions were either the previously described ND96 (Nav and Kv channels) or calcium-free ND96 supplemented with 10 mM BaCl2 (Cav channels).
# (§7) Whole-cell currents of oocytes were recorded 1 to 3 days after RNA injection. The current and voltage electrodes were filled with 3 M KCl, and their resistance was adjusted from 1.0 to 2.5 MΩ. Currents were sampled at 20 kHz (Nav channels) and 10 kHz (Kv and Cav channels) and filtered using a four-pole Bessel low-pass Bessel filter at 1 kHz for sodium and […] for potassium and calcium, except for the hERG ion channel in which the currents were filtered at 1 kHz. Leak subtraction was performed using a P/4 protocol. Kv1.x currents were evoked by 500 ms depolarizations to 0 mV, followed by a 500 ms pulse to −50 mV from a holding potential of −90 mV. Kv2.1, Kv3.1, Kv4.2, Kv7.x, and KQT1 currents were elicited by 700 ms pulses to +20 mV from a holding potential of −90 mV. Current traces of the hERG1 channel were elicited by applying a +40 mV prepulse for 2 s, followed by a step of −120 mV for 2 s. […] The current–voltage relationships were determined by 50 ms step depolarizations between −90 and +65 mV using 5 or 10 mV increments. All electrophysiological data were analyzed following the procedures described by Peigneur et al., 2012 [20].
# as §3
# hKv7.2/7.3 = test: TEVC, Kv7.2/7.3 in Xenopus oocytes; type: cell-based, human
# Excerpt: as §4, §5, §6
# as §2, with “injection. The current and voltage electrodes were filled with 3 M KCl, and their resistance was adjusted from 1.0 to 2.5 MΩ.” for “injection.”
# as §3
# hKv2.1 = test: TEVC, Kv2.1 in Xenopus oocytes; type: cell-based, human
# Excerpt: as §4, §5, §6, §7, §3
# Shaker = test: TEVC, Shaker in Xenopus oocytes; type: cell-based, Drosophila melanogaster; conditions: 1 µM, ND96 pH 7.4, 18–22 °C, n ≥ 3
# Excerpt: as §1, §2, §3
# KQT1 = test: TEVC, KQT1 in Xenopus oocytes; type: cell-based, Caenorhabditis elegans
# Excerpt: as §4, §5, §6, §7, §3
# rKv1.1 = test: TEVC, Kv1.1 in Xenopus oocytes; type: cell-based, rat
# Excerpt: as §4, §5, §6
# as §2, with “injection. The current and voltage electrodes were filled with 3 M KCl, and their resistance was adjusted from 1.0 to 2.5 MΩ.” for “injection.”
# as §3
# rNav1.3 = test: TEVC, Nav1.3 in Xenopus oocytes; type: cell-based, rat
# Excerpt: as §4, §5, §6, §7, §3
# [1] = 1 µM, 100 ms depolarization to 0 mV, mean ± SEM, n ≥ 3
# [2] = 1 µM, TEVC, ND96 pH 7.4, 18–22 °C, n ≥ 3
# [3] = 1 µM, 700 ms pulse to +20 mV from −90 mV, mean ± SEM, n ≥ 3
sequence,measurement,setting,value
"GTPCKCHGYIGVYWFMLAGCPNGYGYNLSCPYFLGICCVKK (disulfide 4-37, 6-30, 20-38 (inferred)) [Hcr 1b-2]","effect on potassium current, Kv3.1",hKv3.1,not active
same,ASIC inhibition,ASIC,ASIC inhibitors
same,"Shift in Vhalf activation, Nav1.6",mNav1.6; 1 µM vs control (ND96),3.5 mV
same,"Shift in Vhalf inactivation, Nav1.6",mNav1.6; 1 µM vs control (ND96),−7.6 mV
same,"reduction of peak amplitude (INa), Nav1.6",mNav1.6; [1],41.8 ± 7.1%
same,"Vhalf activation, Nav1.6","mNav1.6; 1 µM, control (ND96) −23.5 ± 0.1, mean ± SEM, n ≥ 3",−20.0 ± 0.1 mV
same,"Vhalf inactivation, Nav1.6","mNav1.6; 1 µM, control (ND96) −49.1 ± 0.3, mean ± SEM, n ≥ 3",−56.7 ± 0.4 mV
same,"gating-modifier effect (voltage-current relationship), Kv7.2/7.3",hKv7.2/7.3; 1 µM,non-significant gating-modifier effect
same,"Shift in Vhalf activation, Kv7.2/7.3",hKv7.2/7.3; 1 µM vs control (ND96),1.3 mV
same,"effect on potassium current, Kv7.2/7.3",hKv7.2/7.3; [2],inhibition; also recorded: inhibits
same,"Vhalf activation, Kv7.2/7.3","hKv7.2/7.3; 1 µM, control (ND96) 14.6 ± 0.5, mean ± SEM",15.9 ± 0.7 mV
same,"gating-modifier effect (voltage-current relationship), Kv2.1",hKv2.1; 1 µM,non-significant gating-modifier effect
same,"Shift in Vhalf activation, Kv2.1",hKv2.1; 1 µM vs control (ND96),2.6 mV
same,"activity (inhibition of current), Kv2.1",hKv2.1; [3],32.6 ± 3.4%
same,"effect on potassium current, Kv2.1",hKv2.1; [2],inhibition
same,"Vhalf activation, Kv2.1","hKv2.1; 1 µM, control (ND96) 5.3 ± 0.3, mean ± SEM",8.0 ± 0.2 mV
same,"effect on potassium current, Shaker",Shaker,activation
same,"gating-modifier effect (voltage-current relationship), KQT1",KQT1; 1 µM,stronger shift
same,"Shift in Vhalf activation, KQT1",KQT1; 1 µM vs control (ND96),7.9 mV
same,"activity (inhibition of current), KQT1",KQT1; [3],33.4 ± 3.3%
same,"effect on potassium current, KQT1",KQT1; [2],inhibition
same,"Vhalf activation, KQT1","KQT1; 1 µM, control (ND96) 14.6 ± 0.4, mean ± SEM",22.4 ± 0.5 mV
same,"gating-modifier effect (voltage-current relationship), Kv1.1",rKv1.1; 1 µM,non-significant gating-modifier effect
same,"Shift in Vhalf activation, Kv1.1",rKv1.1; 1 µM vs control (ND96),−4.8 mV
same,"effect on potassium current, Kv1.1",rKv1.1; [2],activation
same,"Vhalf activation, Kv1.1","rKv1.1; 1 µM, control (ND96) −13.8 ± 0.3, mean ± SEM",−18.6 ± 0.3 mV
same,"Shift in Vhalf activation, Nav1.3",rNav1.3; 1 µM vs control (ND96),5.3 mV
same,"Shift in Vhalf inactivation, Nav1.3",rNav1.3; 1 µM vs control (ND96),−3.4 mV
same,"inhibition of peak amplitude (INa), Nav1.3",rNav1.3; [1],11.2 ± 1.8%
same,"Vhalf activation, Nav1.3","rNav1.3; 1 µM, control (ND96) −21.2 ± 0.1, mean ± SEM, n ≥ 3",−15.9 ± 0.1 mV
same,"Vhalf inactivation, Nav1.3","rNav1.3; 1 µM, control (ND96) −29.9 ± 0.1, mean ± SEM, n ≥ 3",−33.3 ± 0.1 mV
